Results from US5972894A, “Peptides having potassium channel opener activity” (Cytran, Inc., priority 1997, dated 1999).
Several values for one entry are separate records, joined by “and”; a condition that tells them apart may be missing. Equal entries are not always repeated. Residues, ends and D or L forms follow the SMILES beside them.

Assays:
Isolated Rat Heart = assay: Inotropic function of normal isolated rat heart, Langendorff perfusion; conditions: dose 0.01 mg
Description: Rat heart specimens were obtained surgically from white random-bred male rats weighing approximately 250 g. The hearts were established in culture using retrograde heart perfusion according to the Langendorff method performed with a standard oxygenated (95% O2 and 5% CO2) Krebs-Henseleit solution through a glass aorta cannula. The retroperfusion pressure forces the aortic valves shut. In this way, the oxygenated solution passed only through the coronary vasculature of the heart such that both ventricles remain effectively empty. Perfusion conditions: An average constant perfusate flow rate of 15 to 25 ml/min was maintained with a constant perfusate pressure of 80 cm H2 O. Pressure Measurements: A latex balloon catheter connected with a pressure transducer ([…], Sweden) was inserted into the left ventricle of the heart to measure parameters of the inotropic function of the heart. The intraventricle pressure variation curve for the left ventricle was recorded with a polygraph. Experimental Protocol: GE and VT served as the test substances. After a 30-minute adaptation of the heart to the organ culture perfusion conditions, a set of basal (control) measurements was taken, as described in (i) through (v) below. […] See GOODMAN […] THE PHARMACOLOGICAL BASIS OF THERAPEUTICS 160 (Goodman et al., eds., 7th ed. 1985), incorporated herein by reference in its entirety for all purposes. Each dose of each respective test or reference substance was tested on four different rat hearts. The inotropic functions of each of the four rat hearts were evaluated by measuring: (i) the systolic pressure in the left ventricle ([…] diastolic pressure in the left ventricle ([…] evolving pressure (Pev. =[…]); (iv) the maximal rate of increase of left ventricle pressure (+dp/dtmax mm Hg/sec); and (v) the maximal rate of decrease of left ventricle pressure (-dp/dtmax mm Hg/sec). In addition, the heart rate (HR) of each heart was determined from the pressure variation recordings made of the left ventricle pressure.

mice = assay: Chloroform-induced arrhythmia; format: in vivo; conditions: 240 mg/kg i.p. 15 min before chloroform
Experimental: Each mouse in the study was treated by intraperitoneal injection of a dose of a test or control substance 15 minutes prior to the administration of a deep chloroform anesthesia. A test or control substance was then administered to each mouse. […] Novocainamide, a known antiarrhythmic agent, served as the positive control substance and was administered to mice in the positive control group at a dose of 240 mg/kg. Physiological saline served as the negative control substance and was administered to the mice in the negative control group.
Chloroform anesthesia was administered to each mouse by placing the mouse in an airtight glass container with cotton wool soaked in 20 ml of absolute chloroform. At the moment of respiratory arrest, the mouse was removed from the jar and electrocardiogram (ECG) monitoring (standard lead II) was initiated and continued for 30 seconds. […] An antiarrhythmic activity for a particular dose of a test substance is pharmaceutically acceptable if 30% of the animals in a test group show the latter test results (i.e., namely, no sign of ventricular paroxysmal rhythm disturbances and heart rate below 100 beats per 30 seconds within 30 seconds following the respiratory arrest).

rats [1] = assay: Arterial blood pressure in anesthetized rats; format: in vivo; conditions: 5 mg/kg i.v.
Experimental: White random-bred male rats weighing approximately 200 g were employed for this study. Each dose of each respective test or control substance was administered to a group of five rats. GE and VT were employed as test substances and were administered intravenously at doses of 0.01, 0.1, 1.0, and 10.0 mg/kg. Physiological saline (0.2 ml) served as the negative control substance. The ganglionic blocking agent, pentamine, served as the positive control substance and was tested at a dose of 5 mg/kg. Following administration of the test substance, positive control substance, or negative control substance, the arterial blood pressure of each animal was monitored.
Prior to administration of the test or control substance, each animal was anesthetized with Chloralose and then both its carotid artery and jugular vein were catheterized. The carotid catheter was connected to an electronic manometer attached to a computer recorder through an analog-to-digital converter. The mean basal level of the arterial blood pressure was determined as follows: For a period of 30 seconds, the digital signal pertaining to the arterial blood pressure was recorded at 1-second intervals. The mean value of these thirty individual measurements was then determined and recorded.
After determining the mean basal level of the arterial blood pressure, a particular dose of the test or control substance was administered in a volume of 0.2 ml of physiological saline to an animal through the jugular venous catheter. Measurements of the arterial blood pressure were then taken during the next 1.5 hours as follows: (i) during the first 5 minutes, the arterial blood pressure was being monitored continuously and mean values were calculated electronically and recorded at each of the ten different 30-second intervals (i.e., 30th second, 60th second, etc.); (ii) thereafter, mean values of the arterial blood pressure were calculated at the first seconds of 10th minute, 15th minute, 30th minute, 45th minute, 60th minute, 75th minute, and 90th minute after administration of the respective test or control substance.

ischemic myocardium = assay: Inotropic function and arrhythmias of ischemic isolated rat heart during reperfusion; conditions: 0.06-6.0 mg/l
Description: Rat hearts were surgically isolated from white random-bred rats weighing approximately 250 g. The isolated hearts were perfused with a standard oxygenated (95% O2 and 5% CO2) Krebs-Henseleit solution in a retrograde manner (i.e., according to Langendorff and using a constant perfusate pressure of 80 cm of water). The hearts maintained a steady spontaneous contraction rate. A latex balloon catheter connected to a pressure transducer (EMT-746, Siemens-Elema, Sweden) was inserted into the left ventricle of each heart to measure the inotropic function of the heart (as described in Example 3, above). The left ventricle pressure variation curve was recorded using a polygraph.
Stage I ("adaptation regimen") consisted of a 30-minute adaptation of the respective rat hearts to the perfusion regimen. The baseline parameters for the inotropic function of each heart were recorded to establish the preischemic values for the following measured parameters: (i) the systolic pressure in the left ventricle (Psyst. mm Hg); (ii) the diastolic pressure in the left ventricle (Pdiast. mm Hg); (iii) the evolving pressure (Pev. =Psyst. -Pdist. mm Hg); (iv) the maximal rate of increase of left ventricle pressure (+dp/dtmax mm Hg/sec); and (v) the maximal rate of decrease of left ventricle pressure (-dp/dtmax mm Hg/sec). In addition, the heart rate (HR) of each heart was determined from the recordings made of the variations in the left ventricle pressure over time. In Stage II ("ischemic simulation"), ischemia was induced in each heart by shutting off the supply of the perfusion solution to the heart. Approximately 30 minutes later, Stage III ("reperfusion regimen") was initiated by restarting the reperfusion and including in the perfusate solution a test or control substance at one of the following respective concentrations: a perfusate solution of a test substance comprised 0.06, 0.6, or 6.0 mg/l GE, or 0.06, 0.6, or 6.0 mg/l VT, respectively; a perfusate solution of the positive control substance comprised 14 mg/l inosine. Inosine is a nucleoside preparation that produces a favorable inotropic effect on both normal and ischemic myocardium while inducing no rhythm disturbances or acceleration of ischemic contracture development. Woollard et al., Cardiovasc. Res. 15: 659-67 (1981). Inosine was obtained from Sigma Chemical Company, USA (Cat. Code I-4125; lot number 81H0227). The negative control substance comprised reperfusion using a standard oxygenated Krebs-Henseleit solution.
For each heart, the inotropic function of the myocardium was evaluated by measuring the parameters (i) through (v), discussed above, and the heart rate. These six parameters were recorded continuously throughout the study (i.e., beginning with Stage I and continuing through Stage III). The recordings were analyzed at the following times: (a) immediately before beginning Stage II (that is, after the 30-minute Stage I adaptation period, but before stopping perfusion); and (b) at 1, 5, 10, 20, and 30 minutes into the Stage III reperfusion.
The frequency and duration of rhythm disturbances in the 30-minute Stage III reperfusion period were determined by measuring the following parameters: (i) the number of ventricular extrasystoles; (ii) the overall duration of ventricular tachycardias (in seconds); and (iii) the overall duration of ventricular fibrillation (in seconds). Each dose of the test substance was tested on nine isolated hearts.

rats [2] = assay: ECG parameters of cardiac function in Nembutal-anesthetized rats
Experimental: White random-bred male rats weighing about 200 g were anesthetized using Nembutal. A basal ECG was taken as soon as possible following anesthetization to establish basal measurements for the principal parameters of cardiac functions. Rats showing any deviation from normal ECG parameters were excluded from the study.
Each dose of each test substance was evaluated on a separate experimental group consisting of 10 rats. ECG traces (no less than 4 complexes each) were taken at 1, 3, 5, and 10 minutes after the injection of the test substance. Physiological saline served as the negative control substance. To each animal in the negative control group, 2 ml of physiological saline was injected intravenously.
Cardiac function was evaluated by monitoring the following ECG parameters:
(iv) the duration of the QT interval (which defines the time from the beginning of the QRS complex to the end of the T wave and reflects the duration of ventricular depolarization and repolarization). The normal value for this parameter for Nembutal-anesthetized rats is 50 to 106 ms using lead II ECG.

Structure (SMILES): CC(C)NCC(O)c1ccc(O)c(O)c1 (stereo not drawn) [Isoproterenol, isoproterenol, reference compound]
- +dp/dtmax % of Basal Level (Isolated Rat Heart): 122%
- +dp/dtmax Subst. Level (Isolated Rat Heart): 2110 mm Hg/sec
- -dp/dtmax % of Basal Level (Isolated Rat Heart): 112%
- -dp/dtmax Subst. Level (Isolated Rat Heart): 1140 mm Hg/sec
- HR % of Basal Level (Isolated Rat Heart): 133%
- HR abs, Subst. Level (Isolated Rat Heart): 255 hb/min
- Pdiast % of Basal Level (Isolated Rat Heart): 120%
- Pdiast abs, Subst. Level (Isolated Rat Heart): 12 mm Hg
- Pev % of Basal Level (Isolated Rat Heart): 118%
- Pev Subst. Level (Isolated Rat Heart): 108 mm Hg
- Psyst % of Basal Level (Isolated Rat Heart): 117%

Structure (SMILES): CCN(CC)CCNC(=O)c1ccc(N)cc1 [Novocainamide, reference compound]
- Antiarrhythmic Effect (no. animals) % (mice): 77.8%
- Antiarrhythmic Effect (no. animals) abs (mice): 7
- Result (mice): Antiarrhythmic effect

Structure (SMILES): CC[N+](C)(C)CCN(C)CC[N+](C)(C)CC [Pentamine, pentamine, reference compound]
- Arterial Blood Pressure (Basal Level = 100.00) (rats [1]; 1 min): 87.09%
- Arterial Blood Pressure (Basal Level = 100.00) (rats [1]; 2 min): 68.18%
- Arterial Blood Pressure (Basal Level = 100.00) (rats [1]; 3 min): 70.82%
- Arterial Blood Pressure (Basal Level = 100.00) (rats [1]; 4 min): 69.29%
- Arterial Blood Pressure (Basal Level = 100.00) (rats [1]; 5 min): 74.11%
- Arterial Blood Pressure (Basal Level = 100.00) (rats [1]; 10 min): 91.63%
- Arterial Blood Pressure (Basal Level = 100.00) (rats [1]; 15 min): 89.94%
- Arterial Blood Pressure (Basal Level = 100.00) (rats [1]; 30 min): 86.95%
- Arterial Blood Pressure (Basal Level = 100.00) (rats [1]; 45 min): 93.89%
- Arterial Blood Pressure (Basal Level = 100.00) (rats [1]; 60 min): 100.31%
- Arterial Blood Pressure (Basal Level = 100.00) (rats [1]; 75 min): 94.38%
- Arterial Blood Pressure (Basal Level = 100.00) (rats [1]; 90 min): 93.22%

Structure (SMILES): CC(C)[C@H](N)C(=O)N[C@H](C(=O)O)[C@@H](C)O [VT, L-Valine-L-Threonine] (H-Val-Thr-OH)
- arrhythmogenic effect during reperfusion (ischemic myocardium): Neither GE nor VT was found to have an arrhythmogenic effect
- Duration of QT Interval (% of Initial Mean Value) (rats [2]; 0.001 mg/kg i.v., 1 min): 101.80%
- Duration of QT Interval (% of Initial Mean Value) (rats [2]; 0.001 mg/kg i.v., 3 min): 105.73%
- Duration of QT Interval (% of Initial Mean Value) (rats [2]; 0.001 mg/kg i.v., 5 min): 102.20%
- Duration of QT Interval (% of Initial Mean Value) (rats [2]; 0.001 mg/kg i.v., 10 min): 101.24%
- Duration of QT Interval (% of Initial Mean Value) (rats [2]; 0.01 mg/kg i.v., 1 min): 99.86%
- Duration of QT Interval (% of Initial Mean Value) (rats [2]; 0.01 mg/kg i.v., 3 min): 101.48%
- Duration of QT Interval (% of Initial Mean Value) (rats [2]; 0.01 mg/kg i.v., 5 min): 101.09%
- Duration of QT Interval (% of Initial Mean Value) (rats [2]; 0.01 mg/kg i.v., 10 min): 97.32%
- Duration of QT Interval (% of Initial Mean Value) (rats [2]; 0.1 mg/kg i.v., 1 min): 102.97%
- Duration of QT Interval (% of Initial Mean Value) (rats [2]; 0.1 mg/kg i.v., 3 min): 98.39%
- Duration of QT Interval (% of Initial Mean Value) (rats [2]; 0.1 mg/kg i.v., 5 min): 95.65%
- Duration of QT Interval (% of Initial Mean Value) (rats [2]; 0.1 mg/kg i.v., 10 min): 90.67%
- Duration of QT Interval (% of Initial Mean Value) (rats [2]; 1.0 mg/kg i.v., 1 min): 105.57%
- Duration of QT Interval (% of Initial Mean Value) (rats [2]; 1.0 mg/kg i.v., 3 min): 105.58%
- Duration of QT Interval (% of Initial Mean Value) (rats [2]; 1.0 mg/kg i.v., 5 min): 102.18%
- Duration of QT Interval (% of Initial Mean Value) (rats [2]; 1.0 mg/kg i.v., 10 min): 101.18%
- Duration of QT Interval (% of Initial Mean Value) (rats [2]; 10.0 mg/kg i.v., 1 min): 94.89% and 102.97%
- Duration of QT Interval (% of Initial Mean Value) (rats [2]; 10.0 mg/kg i.v., 3 min): 95.91% and 105.82%
- Duration of QT Interval (% of Initial Mean Value) (rats [2]; 10.0 mg/kg i.v., 5 min): 96.52% and 103.51%
- Duration of QT Interval (% of Initial Mean Value) (rats [2]; 10.0 mg/kg i.v., 10 min): 88.88% and 104.78%
- Duration of QT Interval (% of Initial Mean Value) (rats [2]; 100.0 mg/kg i.v., 1 min): 100.00% and 96.62%
- Duration of QT Interval (% of Initial Mean Value) (rats [2]; 100.0 mg/kg i.v., 3 min): 100.82% and 100.45%
- Duration of QT Interval (% of Initial Mean Value) (rats [2]; 100.0 mg/kg i.v., 5 min): 97.96% and 99.74%
- Duration of QT Interval (% of Initial Mean Value) (rats [2]; 100.0 mg/kg i.v., 10 min): 94.74% and 102.25%
